In one experiment the test system is E. coli. The experiment can be described thus: MIC by broth microdilution (CLSI), E. coli. The experiment is classed as cell-based. As to conditions: Escherichia coli, broth microdilution, cation adjusted Mueller-Hinton Broth, 35° C., 18-24 h; read-out: E. coli MIC. The method, then: (§1) Minimal inhibitory concentrations (MIC) were determined by the broth microdilution method in accordance with the Clinical and Laboratory Standards Institute (CLSI) guidelines. In brief, organism suspensions were adjusted to a 0.5 McFarland standard to yield a final inoculum between 3×10^5 and 7×10^5 colony-forming units (CFU)/mL. Drug dilutions and inocula were made in sterile, cation adjusted Mueller-Hinton Broth (Beckton Dickinson). An inoculum volume of 100 μL was added to wells containing 100 μL of broth with 2-fold serial dilutions of drug. All inoculated microdilution trays were incubated in ambient air at 35° C. for 18-24 h. Following incubation, the lowest concentration of the drug that prevented visible growth (OD600 nm<0.05) was recorded as the MIC. Performance of the assay was monitored by the use of laboratory quality-control strains and levofloxacin, a compound with a defined MIC spectrum, in accordance with CLSI guidelines.
For orientation: Dilution methods test growth across graded concentrations, often in twofold steps.

The test system of the next experiment is K. pneumoniae. The experiment can be described thus: MIC by broth microdilution (CLSI), K. pneumoniae. The experiment is classed as cell-based. As to conditions: Klebsiella pneumoniae, broth microdilution, cation adjusted Mueller-Hinton Broth, 35° C., 18-24 h; read-out: K. pneumoniae MIC. The protocol:
as §1

Values after ≈ are worked out from the molar mass of the structure shown.

What is called MIC is the smallest concentration in the dilution series that meets the test's criterion for growth inhibition. Take `CC(=O)NCC(Cc1ccc(C#CC#CC2CC2)c(F)c1)c1nc[nH]c(=O)c1O` (stereo not shown) [Compound 64, N-(3-(4-(cyclopropylbuta-1,3-diyn-1-yl)-3-fluorophenyl)-2-(5-hydroxy-6-oxo-1,6-dihydropyrimidin-4-yl)propyl)acetamide]: the MIC in the experiment on E. coli and in the experiment on K. pneumoniae was 1 to 8 µg/mL (≈ 2.54 to 20.3 µM) throughout.
As to `O=c1ccoc(CCc2ccc(C#Cc3ccc(CN4CCOCC4)cc3)cc2)c1O` [Compound 117, 3-hydroxy-2-(4-((4-(morpholinomethyl)phenyl)ethynyl)phenethyl)-4H-pyran-4-one], the MIC with E. coli was 8 to 32 µg/mL (≈ 19.3 to 77 µM); with K. pneumoniae, more than 32 µg/mL.
Consider `O=c1[nH]cnc(CCc2ccc(C#Cc3ncccn3)cc2)c1O` [Compound 14, 5-hydroxy-6-(4-(pyrimidin-2-ylethynyl)phenethyl) pyrimidin-4(3H)-one], for which the MIC with E. coli was 8 to 32 µg/mL (≈ 25.1 to 101 µM); in the experiment with K. pneumoniae it was more than 32 µg/mL.
Turning to `COC(=O)NCC(Cc1ccc(C#Cc2ccc(CN3CCOCC3)cc2)cn1)c1nc[nH]c(=O)c1O` (stereo not shown) [Compound 29, methyl (2-(5-hydroxy-6-oxo-1,6-dihydropyrimidin-4-yl)-3-(5-((4-(morpholinomethyl)phenyl)ethynyl)pyridin-2-yl)propyl)carbamate], the MIC in the experiment with E. coli and in the experiment with K. pneumoniae was more than 32 µg/mL in each case.
For `O=C1N(CCc2nc[nH]c(=O)c2O)Cc2cc(Br)cn21` [Compound 69, 6-bromo-2-(2-(5-hydroxy-6-oxo-1,6-dihydropyrimidin-4-yl)ethyl)-1,2-dihydro-3H-pyrrolo[1,2-c]imidazol-3-one], the MIC with E. coli and with K. pneumoniae was more than 32 µg/mL in each case.
For `O=C(Cc1nc[nH]c(=O)c1O)N1CCC(C#Cc2ccc(CN3CCOCC3)cc2)CC1` [Compound 77, 5-hydroxy-6-(2-(4-((4-(morpholinomethyl)phenyl)ethynyl)piperidin-1-yl)-2-oxoethyl)pyrimidin-4(3H)-one], the MIC is 8 to 32 µg/mL (≈ 18.3 to 73.3 µM) in the experiment on E. coli and more than 32 µg/mL in the experiment with K. pneumoniae.
As to `O=c1[nH]cnc(C2(Cc3ccc(C#Cc4ccc(CN5CCOCC5)cc4)cc3)CC2)c1O` [Compound 135, 5-hydroxy-6-(1-(4-((4-(morpholinomethyl)phenyl)ethynyl)benzyl)cyclopropyl) pyrimidin-4(3H)-one], the MIC in the experiment with E. coli was 8 to 32 µg/mL (≈ 18.1 to 72.5 µM); with K. pneumoniae, more than 32 µg/mL.
In the case of `C/C(=N\O)C(Cc1ccc(C#Cc2ccc(CN3CCOCC3)cc2)cc1)c1ncnc(O)c1O` (stereo not shown) [Compound 111, (E)-3-(5,6-dihydroxypyrimidin-4-yl)-4-(4-((4-(morpholinomethyl)phenyl)ethynyl)phenyl)butan-2-one oxime], the MIC is 8 to 32 µg/mL (≈ 16.9 to 67.7 µM) in the experiment with E. coli and more than 32 µg/mL with K. pneumoniae.
In the same order, the values of `CC(C)C#CC#Cc1ccc(CC(C(=O)NCC(F)F)c2nc[nH]c(=O)c2O)cc1F` (stereo not shown) [Compound 63, N-(2,2-difluoroethyl)-3-(3-fluoro-4-(5-methylhexa-1,3-diyn-1-yl)phenyl)-2-(5-hydroxy-6-oxo-1,6-dihydropyrimidin-4-yl)propanamide] are 1 to 8 µg/mL (≈ 2.32 to 18.5 µM) and 8 to 32 µg/mL (≈ 18.5 to 74.2 µM).
In the same order, the values of `O=c1[nH]cnc(CCc2ccc(C#Cc3ccc(CN4CCOCC4)nc3)cc2)c1O` [Compound 17, 5-hydroxy-6-(4-((6-(morpholinomethyl)pyridin-3-yl)ethynyl)phenethyl) pyrimidin-4(3H)-one] are less than 1 µg/mL and 1 to 8 µg/mL (≈ 2.4 to 19.2 µM).
For `O=c1[nH]cnc(C(CNCCF)Cc2ccc(C#Cc3ccc(CN4CCOCC4)cn3)cc2)c1O` (stereo not shown) [Compound 30, 6-(1-((2-fluoroethyl)amino)-3-(4-((5-(morpholinomethyl)pyridin-2-yl)ethynyl)phenyl)propan-2-yl)-5-hydroxypyrimidin-4(3H)-one], the MIC in the experiment with E. coli and in the experiment on K. pneumoniae was more than 32 µg/mL throughout.
Regarding `Nc1ncc(C#Cc2ccc(CC(C(=O)NCC(F)F)c3nc[nH]c(=O)c3O)cc2)cn1` (stereo not shown) [Compound 24, 3-(4-((2-aminopyrimidin-5-yl)ethynyl)phenyl)-N-(2,2-difluoroethyl)-2-(5-hydroxy-6-oxo-1,6-dihydropyrimidin-4-yl)propanamide], the MIC in the experiment with E. coli and with K. pneumoniae was more than 32 µg/mL each time.
For the compound `O=c1[nH]cnc(C2CC2c2ccc(C#Cc3ccc(CN[C@@H]4CCNC4)cc3)cc2)c1O` (stereo partly drawn) [Compound 103, 5-hydroxy-6-(2-(4-((4-((((R)-pyrrolidin-3-yl)amino)methyl)phenyl)ethynyl)phenyl)cyclopropyl) pyrimidin-4(3H)-one], the MIC was 1 to 8 µg/mL (≈ 2.34 to 18.8 µM) in the experiment on E. coli and more than 32 µg/mL in the experiment with K. pneumoniae.
For `O=C(NCC(F)F)C(Cc1ccc(C#CC#CC2CC2)c(F)c1)c1nc[nH]c(=O)c1O` (stereo not shown) [Compound 61, 3-(4-(cyclopropylbuta-1,3-diyn-1-yl)-3-fluorophenyl)-N-(2,2-difluoroethyl)-2-(5-hydroxy-6-oxo-1,6-dihydropyrimidin-4-yl)propanamide], the MIC with E. coli and in the experiment on K. pneumoniae was 1 to 8 µg/mL (≈ 2.33 to 18.6 µM) each time.
Consider `O=c1ccoc(CC(CO)c2ccc(C#Cc3ccc(CN4CCOCC4)cc3)cc2)c1O` (stereo not shown) [Compound 137, 3-hydroxy-2-(3-hydroxy-2-(4-((4-(morpholinomethyl)phenyl)ethynyl)phenyl)propyl)-4H-pyran-4-one], for which the MIC in the experiment with E. coli and with K. pneumoniae was 1 to 8 µg/mL (≈ 2.24 to 18 µM) each time.
In the case of `CC(=O)NCC(Cc1ccc(C#Cc2ccc(CN3CCOCC3)cc2)cc1)c1nncc(O)c1O` (stereo not shown) [Compound 11, N-(2-(4,5-dihydroxypyridazin-3-yl)-3-(4-((4-(morpholinomethyl)phenyl)ethynyl)phenyl)propyl) acetamide], the MIC with E. coli and in the experiment with K. pneumoniae was 8 to 32 µg/mL (≈ 16.4 to 65.8 µM) in each case.
As for `O=c1[nH]cnc(CCc2ccc(C#Cc3ccc(CN4CCOCC4)cn3)cc2)c1O` [Compound 16, 5-hydroxy-6-(4-((5-(morpholinomethyl)pyridin-2-yl)ethynyl)phenethyl) pyrimidin-4(3H)-one], the MIC was less than 1 µg/mL in the experiment on E. coli and 1 to 8 µg/mL (≈ 2.4 to 19.2 µM) with K. pneumoniae.
For `N#CCC(Cc1ccc(C#Cc2ccc(CN3CCOCC3)cc2)cc1)c1nc[nH]c(=O)c1O` (stereo not shown) [Compound 106, 3-(5-hydroxy-6-oxo-1,6-dihydropyrimidin-4-yl)-4-(4-((4-(morpholinomethyl)phenyl)ethynyl)phenyl)butanenitrile], in that order: 1 to 8 µg/mL (≈ 2.2 to 17.6 µM) and 1 to 8 µg/mL (≈ 2.2 to 17.6 µM).
Take `C=CCNCC(Cc1ccc(C#CC#Cc2ccc(C(=O)NCCO)cc2)cc1)c1nc[nH]c(=O)c1O` (stereo not shown) [Compound 34, 4-((4-(3-(allylamino)-2-(5-hydroxy-6-oxo-1,6-dihydropyrimidin-4-yl)propyl)phenyl)buta-1,3-diyn-1-yl)-N-(2-hydroxyethyl)benzamide]: the results for the minimum inhibitory concentration (MIC) in the experiment on E. coli and in the experiment with K. pneumoniae were 1 to 8 µg/mL (≈ 2.01 to 16.1 µM) and 8 to 32 µg/mL (≈ 16.1 to 64.4 µM), respectively.
Consider `O=c1[nH]cnc(Cn2ccc3cc(C#Cc4ccc(CN5CCOCC5)cc4)cnc32)c1O` [Compound 80, 5-hydroxy-6-((5-((4-(morpholinomethyl)phenyl)ethynyl)-1H-pyrrolo[2,3-b]pyridin-1-yl)methyl)pyrimidin-4(3H)-one], for which the values for the MIC with E. coli and in the experiment on K. pneumoniae were 8 to 32 µg/mL (≈ 18.1 to 72.5 µM) and more than 32 µg/mL, respectively.
On to `O=c1[nH]cnc(CS(=O)(=O)c2ccc(C#Cc3ccc(CN4CCOCC4)cc3)cc2)c1O` [Compound 118, 5-hydroxy-6-(((4-((4-(morpholinomethyl)phenyl)ethynyl)phenyl)sulfonyl)methyl) pyrimidin-4(3H)-one], for which, in the experiment on E. coli, the MIC was 8 to 32 µg/mL (≈ 17.2 to 68.7 µM).
Regarding `O=c1[nH]cnc(CNc2ccc(C#Cc3ccc(-c4nnn[nH]4)cc3)cc2)c1O` [Compound 129, 6-(((4-((4-(1H-tetrazol-5-yl)phenyl)ethynyl)phenyl)amino)methyl)-5-hydroxypyrimidin-4(3H)-one], in the experiment with E. coli, the MIC was more than 32 µg/mL.
Take `CC(=O)NCC(Cc1ccc(C#Cc2ccc(CN3CCOCC3)cc2)cc1)c1cc[nH]c(=O)c1O` (stereo not shown) [Compound 1, N-(2-(3-hydroxy-2-oxo-1,2-dihydropyridin-4-yl)-3-(4-((4-(morpholinomethyl)phenyl)ethynyl)phenyl)propyl) acetamide]: in the experiment with E. coli, the MIC is more than 32 µg/mL.
For `O=c1[nH]cnc(CNc2ccc(C#Cc3ccc(-c4ncco4)cc3)cc2)c1O` [Compound 128, 5-hydroxy-6-(((4-((4-(oxazol-2-yl)phenyl)ethynyl)phenyl)amino)methyl)pyrimidin-4(3H)-one], the MIC in the experiment with E. coli is more than 32 µg/mL.
For the compound `NC(=O)C(Cc1ccc(C#Cc2ccc(CN3CCOCC3)cc2)cc1)n1cccc(O)c1=O` (stereo not shown) [Compound 6, 2-(3-hydroxy-2-oxopyridin-1(2H)-yl)-3-(4-((4-(morpholinomethyl)phenyl)ethynyl)phenyl)propanamide], the MIC in the experiment on E. coli is more than 32 µg/mL.
As for `NC(=O)C(Cc1ccc(C#Cc2ccc(CN3CCOCC3)cc2)cc1)n1cncc(O)c1=O` (stereo not shown) [Compound 5, 2-(5-hydroxy-6-oxopyrimidin-1(6H)-yl)-3-(4-((4-(morpholinomethyl)phenyl)ethynyl)phenyl)propanamide], the MIC with E. coli was more than 32 µg/mL.
Regarding `O=c1[nH]cnc(Cn2ccc(C#Cc3ccc(CN4CCOCC4)cc3)cc2=O)c1O` [Compound 44, 5-hydroxy-6-((4-((4-(morpholinomethyl)phenyl)ethynyl)-2-oxopyridin-1(2H)-yl)methyl)pyrimidin-4(3H)-one], the minimum inhibitory concentration (MIC) in the experiment with E. coli was in the range of 8 to 32 µg/mL (≈ 19.1 to 76.5 µM).
Consider `O=C(O)c1ccc(C#Cc2ccc(NCc3occc(=O)c3O)cc2)cc1` [Compound 123, 4-((4-(((3-hydroxy-4-oxo-4H-pyran-2-yl)methyl)amino)phenyl)ethynyl)benzoic acid], for which the MIC in the experiment with E. coli is more than 32 µg/mL.
Turning to `O=C(Nc1ccc(C#CC#Cc2ccccc2)cc1)c1occc(=O)c1O` [Compound 130, 3-hydroxy-4-oxo-N-(4-(phenylbuta-1,3-diyn-1-yl)phenyl)-4H-pyran-2-carboxamide], the MIC in the experiment on E. coli was more than 32 µg/mL.

Values taken from US20220081421A1, “ANTIBACTERIAL COMPOUNDS” (Forge Therapeutics, Inc., priority 2018, published 2022).
